Legend:
Assay type in all cases: cell-based
yeast = experiment: Molasses-based recycle stream treated with SCD, QAC or both: viable yeast; conditions: QAC only (60 ppm), pH 3.0, 32° C.
Procedure: (§1) In this example, a molasses-based fermentation medium was prepared and inoculated with both yeast and lactic acid bacteria. The medium comprised various components as follows:
(§2) Following inoculation, the mixed culture was grown overnight in the molasses medium, after which a recycle stream was prepared by centrifuging the broth at 3000 rpm for 5 minutes. The resulting pellet was separated from the supernatant and reconstituted using sterile deionized water, then adjusted to pH 3.0 using sulfuric acid. 5 ml portions of the reconstituted pellet were then treated as follows: • 1. Untreated • 2. QAC only (60 ppm) • 3. SCD (45 ppm) • 4. SCD/QAC (45 ppm/60 ppm)
(§3) The SCD was FermaSure® fermentation additive, E. I. du Pont de Nemours and Co., Wilmington Del. The quaternary ammonium compound (QAC) was the same DDAC (BTC 1010, Stepan Company, Northfield, Ill.) as used in Example 1.
(§4) Samples were stored in a shaking incubator at 32° C. for 2 hours following which 0.1 ml aliquots were serially diluted and plated on selective media to enumerate surviving yeast and bacteria cells. […] Following this cycle, the SCD and SCD/QAC treated samples were centrifuged as before, and the number of viable yeast and bacterial cells in the resulting pellet was determined.

Lactobacillus brevis = experiment: Checkerboard assay of SCD with a quaternary ammonium compound against Lactobacillus brevis; design: key: no inhibition of growth (NI); partial inhibition (PI); complete inhibition (CI); conditions: SCD 0 ppm, MRS broth pH 5.5, 28 hours at 32° C.
From the text: In this example, stabilized chlorine dioxide (SCD) and a quaternary ammonium chloride (QAC) mixture were used in a checkerboard assay to determine whether their interaction was synergistic against Lactobacillus brevis. The checkerboard assay method is used to analyze interactions between compounds by mixing them in increasing concentrations to determine whether the compounds act synergistically, additively or antagonistically. (See, M. Najjar, D. Kashtanov, M Chikindas, Letters in Applied Microbiology, vol. 45 (2007) 13-18.) L. brevis was cultured overnight in MRS broth (deMan Rogosa and Sharp broth, Difco Laboratories, Inc., Sparks, M.D.) at 32° C. The culture was then diluted and resuspended in fresh MRS broth adjusted to pH 5.5. The number of bacteria in the resuspended culture was determined using standard plate counts. Samples were diluted (1:10) in sterile phosphate-buffered saline (Sigma-Aldrich Co., St. Louis, Mo.) and plated onto the surface of MRS plates. The resuspended culture […] was then used to fill the wells of a 96 well plate (Becton, Dickinson and Co., Franklin Lakes, N.J.). SCD (FermaSure® fermentation additive, E. I. du Pont de Nemours and Co., Wilmington Del.) and a quaternary ammonium compound (BTC 1010, a solution of didecyl dimethyl ammonium chloride, DDAC, Stepan Company, Northfield, Ill.) were then added at the concentrations shown in the “checkerboard” plate diagram below. The plate was covered and incubated for 28 hours at 32° C. Following incubation, the plate was removed and the optical density of each well was determined using a plate reader at 630 nm (PowerWave, BioTek Instruments Inc., Winooski, Vt.). Based on the optical density, each well was scored to determine whether there was no inhibition of growth (NI), partial inhibition (PI), or complete inhibition (CI).
To determine whether any synergistic activity occurred between SCD and the quaternary ammonium compound, the fractional inhibitory concentration (FIC) was determined using the formula:
FIC=[SCD]/MICSCD+[DDAC]/MICDDAC
where [SCD] and [DDAC] are the concentrations of SCD and BTC 1010 that result in partial inhibition and MICSCD and MICDDAC are the minimum inhibitor concentration of SCD and DDAC, respectively. Synergy between the two antimicrobials is determined when the resulting FIC is <1.0.
In this example, SCD (FermaSure® fermentation additive, E. I. du Pont de Nemours and Co., Wilmington Del.) and a second quaternary ammonium compound (BTC 2125, a mixture of n-alkyl dimethyl benzyl ammonium chlorides and n-alkyl dimethyl ethylbenzyl ammonium chlorides, ADBAC/ADEBAC, Stepan Company, Northfield, Ill.) were used in a checkerboard assay to determine whether their interaction was synergistic against Lactobacillus brevis. L. brevis was cultured as above, resuspended in MRS at pH 5.5, and then added […] the wells of a 96 well plate (Becton Dickinson, Franklin Lakes, N.J.). […] Following incubation, the plate was removed and the optical density of each well was determined using a plate reader at 630 nm. Based on the optical density, each well was scored to determine whether there was no inhibition (NI), partial inhibition (PI), or complete inhibition (CI).
To determine whether any synergistic activity occurred between SCD and the ADBAC/ADEBAC quaternary ammonium compound, the fractional inhibitory concentration (FIC) was determined as above using the formula: […]

lactic acid bacteria = experiment: Molasses-based recycle stream treated with SCD, QAC or both: viable bacteria
Procedure: as §1, §2, §3, §4

Viable bacteria = experiment: Bench-scale successive fermentations with yeast recycle stream from a molasses-based ethanol plant, viable bacteria enumerated
Procedure: In this example, samples of recycle streams comprising primarily inoculant yeast were collected from a molasses-based ethanol plant in Brazil. The samples were used to complete bench-scale fermentations in which the samples were treated with a combination of SCD (FermaSure® fermentation additive, E. I. du Pont de Nemours and Co., Wilmington Del.) with didecyl dimethyl ammonium chloride (BTC 1010, a solution of didecyl dimethyl ammonium chloride, DDAC, same as in Example 1), as quaternary compound. The treated samples were used to carry out successive 8-hour long fermentations, using recovered yeast at the end of each cycle to begin the next run. Viable bacteria were enumerated over 5 fermentation cycles. Results are provided in Table 3 where ND means the combination was not tested.

[1] = SCD 0 ppm, DDAC 60 ppm, yeast recycle stream, 8-hour fermentations

Question: With `CCCCCCCCCC[N+](C)(C)CCCCCCCCCC.[Cl-]` [DDAC, didecyl dimethyl ammonium chloride] as the compound, how does the “Viable Cells (2 hrs) Yeast” value (yeast) read?
Answer: 8.8 logCFU per milliliter

Question: And the “inhibition of growth score based on optical density at 630 nm” value (from here on “inhibition of growth score based”) (Lactobacillus brevis; DDAC 2 ppm)?
Answer: PI

Question: What about the “inhibition of growth score based” value (Lactobacillus brevis; DDAC 4 ppm) of the same compound?
Answer: PI

Question: And the “inhibition of growth score based” value (Lactobacillus brevis; DDAC 5 ppm)?
Answer: PI

Question: And the “inhibition of growth score based” value (Lactobacillus brevis; DDAC 6 ppm)?
Answer: PI

Question: And the “inhibition of growth score based” value (Lactobacillus brevis; DDAC 7 ppm)?
Answer: CI

Question: And the “Viable Cells (2 hrs) Bacteria” value (lactic acid bacteria; QAC only (60 ppm), pH 3.0, 32° C., 2 hours)?
Answer: 8.1 logCFU per milliliter

Question: What about the “number of viable bacteria, in words” value (lactic acid bacteria; treatments of Table 4 (QAC 60 ppm, SCD 45 ppm, SCD/QAC 45 ppm/60 ppm)) of the same compound?
Answer: did not result in any reduction in viable bacterial cells

Question: And the “Log Viable Bacteria Cycle 1” value (Viable bacteria; [1])?
Answer: 7.79

Question: What about the “Log Viable Bacteria Cycle 2” value (Viable bacteria; [1]) of the same compound?
Answer: 7.97

Question: And the “efficacy against viable bacteria, in words” value (Viable bacteria; treatments of Table 3 (45 ppm SCD and 60 ppm DDAC; 60 ppm DDAC alone), through 5 cycles of fermentation)?
Answer: did not result in any significant inactivation of bacteria
